The subject of series [1] is laboratory strain of HIV-1. Kind of series: Antiviral activity against HIV (AV), p24 in infected activated primary T cells. The conditions noted are these: for IC50: Human immunodeficiency virus 1, T-cell, read-out: AV50 (Inhibitory concentration 50% for antiviral activity); for antiviral and antiproliferative activity and cytotoxicity profile (in words): summary of AV, AP and cytotoxicity assays. Format: cell-based. Here is the method: Activated primary T cells are infected with a laboratory strain of HIV-1, then cultured and exposed to different concentrations of the test compounds. HIV replication is analysed by measuring the viral protein p24 and expressed as percentage of untreated control. Inhibition of viral replication (AV) is then calculated (AV=100 minus the % p24 compared to control, AV of control=0%). Inhibitory concentration 50% for antiviral activity (AV50) is calculated.
(§1) In Tables 2, 3 and 4, ND means Not Determined.

Series [2] relates to Primary T cells. In words: Antiproliferative activity (AP), mitotic index by flow cytometry. Format: cell-based. The conditions noted are these: T-cell, read-out: AP50 (Inhibitory concentration 50% for antiproliferative capacity). As for the experimental part: Primary T cells are cultured and exposed to different concentrations of the test compounds. Cell proliferation is analysed by measuring mitotic index (ie the number of cell divisions a population of cells undergoes) through flow cytometry based techniques. Mitotic index is expressed as percentage of untreated control. Inhibition of cell proliferation (AP) is then calculated (AP=100 minus % mitotic index compared to control, AP of control=0%). Inhibitory concentration 50% for antiproliferative capacity (AP50) is calculated.
as §1
Background: A flow cytometer gives signals particle by particle.

Where [3] appears, read: HIV-1 infected activated primary T cells, p24.

The structures appear in SMILES notation. Where two headings read alike, the source gives them in different places.

Consider `COc1ccc(Nc2cc(-c3ccccc3OC)ncn2)cc1F` [Example 22, N-(3-Fluoro-4-methoxyphenyl)-6-(2-methoxyphenyl)pyrimidin-4-amine], for which the IC50 was below 1500 nM in series [1] and above 500 nM in series [2] (primary T cells, mitotic index).
Consider `CCOc1ccc(Nc2cc(-c3ccc(F)cc3OC)ncn2)cc1C(N)=O` [Example 112, 2-Ethoxy-5-[6-(4-fluoro-2-methoxy-phenyl)-pyrimidin-4-ylamino]-benzamide], for which the IC50 in series [1] was 6 nM; in series [2] (primary T cells, mitotic index), below 3 nM. In series [1], the “antiviral and antiproliferative activity and cytotoxicity profile (in words)” value is “good antiviral and antiproliferative activity and a good cytotoxicity profile”.
As to `CN1CC[C@H](c2c(O)cc(O)c3c(=O)cc(-c4ccccc4Cl)oc23)[C@H](O)C1` [Flavopiridol, reference compound], the IC50 was determined as 100 nM in series [1] (setting [3]) and 30 nM in series [2] (primary T cells, mitotic index). The “anti-HIV and cytotoxicity profile (in words)” value in series [1] (summary of AV and cytotoxicity assays) was “poor anti-HIV and cytotoxicity profile”.
For `CCOc1ccc(Nc2cc(-c3ccccc3OC)ncn2)cc1C(N)=O` [Example 111, 2-Ethoxy-5-[6-(2-methoxy-phenyl)-pyrimidin-4-ylamino]-benzamide], in series [1], the IC50 was determined as 7 nM; the “antiviral and antiproliferative activity and cytotoxicity profile (in words)” value was “good antiviral and antiproliferative activity and a good cytotoxicity profile”. In addition, the IC50 in series [2] (primary T cells, mitotic index) came to 16 nM.
Turning to `COc1ccc(Nc2cc(-c3ccccc3OC)ncn2)cc1O` [Example 32, 2-Methoxy-5-(6-(2-methoxyphenyl)pyrimidin-4-ylamino)phenol], in series [1], the IC50 came out at 150 nM; the “antiviral and antiproliferative activity and cytotoxicity profile (in words)” value was “good antiviral and antiproliferative activity and a good cytotoxicity profile”. For the same compound, the IC50 in series [2] (primary T cells, mitotic index) came to 70 nM.
In the case of `COc1ccc(Nc2cc(-c3ccccc3OC)ncn2)cc1CO` [Example 24, (2-Methoxy-5-(6-(2-methoxyphenyl)pyrimidin-4-ylamino)phenyl)methanol], the IC50 in series [1] and in series [2] was above 500 nM throughout.
On to `COc1ccccc1-c1cc(Nc2ccc(Cl)c(Cn3cnc4ccccc43)c2)ncn1` [Example 16, N-(3-((1H-benzo[d]imidazol-1-yl)methyl)-4-chlorophenyl)-6-(2-methoxyphenyl)pyrimidin-4-amine], for which, in series [1], the IC50 amounted to 110 nM; the “antiviral and antiproliferative activity and cytotoxicity profile (in words)” value is “good antiviral and antiproliferative activity and a good cytotoxicity profile”. For the same compound, the IC50 in series [2] amounted to 100 nM.
As for `CCOc1ccccc1-c1cc(Nc2cc(C(N)=O)c(OC)cc2F)ncn1` [Example 145, 5-[6-(2-Ethoxy-phenyl)-pyrimidin-4-ylamino]-4-fluoro-2-methoxy-benzamide], the IC50 in series [1] is 30 nM; in series [2] it was 50 nM. Moreover, in series [1], the “antiviral and antiproliferative activity and cytotoxicity profile (in words)” value was “good antiviral and antiproliferative activity and a good cytotoxicity profile”.
For `COc1ccccc1-c1cc(Nc2ccc(Cl)c(CO)c2)ncn1` [Example 6, (2-Chloro-5-(6-(2-methoxyphenyl)pyrimidin-4-ylamino)phenyl)methanol], the IC50 was above 1500 nM in series [1] and above 500 nM in series [2] (primary T cells, mitotic index).
Turning to `COc1ccc(Nc2cc(-c3ccccc3OC)ncn2)cc1CN` [Example 43, N-(3-(Aminomethyl)-4-methoxyphenyl)-6-(2-methoxyphenyl)pyrimidin-4-amine], the “antiviral and antiproliferative activity and cytotoxicity profile (in words)” value in series [1] was “good antiviral and antiproliferative activity and a good cytotoxicity profile”. Besides, the IC50 in series [2] (primary T cells, mitotic index) came out at 500 nM.
In the case of `CCOc1ccc(Nc2cc(-c3ccccc3OC)ncn2)cc1Cn1cnc2ccccc21` [Example 39, N-(3-((1H-Benzo[d]imidazol-1-yl)methyl)-4-ethoxyphenyl)-6-(2-methoxyphenyl)pyrimidin-4-amine], the IC50 in series [1] is above 1000 nM; in series [2] (primary T cells, mitotic index), 300 nM.
Regarding `COc1ccc(Nc2cc(-c3ccc(F)cc3OC)ncn2)cc1N` [Example 64], in series [1], the IC50 is 5000 nM; the “antiviral and antiproliferative activity and cytotoxicity profile (in words)” value is “good antiviral and antiproliferative activity and a good cytotoxicity profile”. Also, the IC50 in series [2] (primary T cells, mitotic index) was below 80 nM.
As to `COc1ccc(Nc2cc(-c3ccccc3OC)ncn2)cc1C=O` [Example 29, 2-Methoxy-5-(6-(2-methoxyphenyl)pyrimidin-4-ylamino)benzaldehyde], the IC50 in series [1] was above 500 nM; in series [2] (primary T cells, mitotic index) it was above 500 nM.
With `COc1ccccc1-c1cc(Nc2ccc(N3CCN(C)CC3)c(CO)c2)ncn1` [Example 17], the IC50 was above 1500 nM in series [1] and 350 nM in series [2] (primary T cells, mitotic index).
Turning to `COc1ccc(Nc2cc(-c3ccccc3OC)ncn2)cc1C(=O)NCc1ccccc1` [Example 23, N-Benzyl-2-methoxy-5-(6-(2-methoxyphenyl)pyrimidin-4-ylamino)benzamide], the IC50 in series [1] and in series [2] was above 500 nM throughout.
As to `COc1ccccc1-c1cc(Nc2ccc(N3CCN(C)CC3)c(S(N)(=O)=O)c2)ncn1` [Example 38, 5-(6-(2-Methoxyphenyl)pyrimidin-4-ylamino)-2-(4-methylpiperazin-1-yl)benzenesulfonamide], the IC50 was below 1500 nM in series [1] and above 500 nM in series [2] (primary T cells, mitotic index).
On to `COc1ccc(Nc2cc(-c3ccccc3OC(C)C)ncn2)cc1N` [Example 79, N^1-[6-(2-Isopropoxy-phenyl)-pyrimidin-4-yl]-4-methoxy-benzene-1,3-diamine], for which the IC50 in series [1] is 8 nM; in series [2] (primary T cells, mitotic index), below 80 nM. Moreover, the “antiviral and antiproliferative activity and cytotoxicity profile (in words)” value in series [1] was “good antiviral and antiproliferative activity and a good cytotoxicity profile”.
As to `COc1cc(F)c(Nc2cc(-c3ccc(F)cc3OC)ncn2)cc1C(N)=O` [Example 146, 4-Fluoro-5-[6-(4-fluoro-2-methoxy-phenyl)-pyrimidin-4-ylamino]-2-methoxy-benzamide], in series [1], the IC50 was below 3 nM; the “antiviral and antiproliferative activity and cytotoxicity profile (in words)” value was “good antiviral and antiproliferative activity and a good cytotoxicity profile”. The IC50 in series [2] is 40 nM.
With `COc1ccc(Nc2cc(-c3cc(F)ccc3OC)ncn2)cc1N` [Example 75, N^1-[6-(5-Fluoro-2-methoxy-phenyl)-pyrimidin-4-yl]-4-methoxy-benzene-1,3-diamine], the IC50 in series [1] is 10 nM; in series [2] (primary T cells, mitotic index) it was below 80 nM. Also, the “antiviral and antiproliferative activity and cytotoxicity profile (in words)” value in series [1] is “good antiviral and antiproliferative activity and a good cytotoxicity profile”.
`COc1ccc(Nc2cc(-c3ccccc3OC)ncn2)cc1OC(=O)C(C)(C)C` [Example 26, 2-methoxy-5-(6-(2-methoxyphenyl)pyrimidin-4-ylamino)phenyl pivalate]: the IC50 was 100 nM in series [1] (setting [3]) and 100 nM in series [2] (primary T cells, mitotic index). In addition, the “antiviral and antiproliferative activity and cytotoxicity profile (in words)” value in series [1] is “good antiviral and antiproliferative activity and a good cytotoxicity profile”.
Regarding `COc1ccc(Nc2cc(-c3ccccc3OC)ncn2)cc1C(=O)NCc1ccncc1` [Example 28, 2-Methoxy-5-(6-(2-methoxyphenyl)pyrimidin-4-ylamino)-N-(pyridin-4-ylmethyl)benzamide], the IC50 in series [1] and in series [2] was above 500 nM in each case.
As to `COc1cc(F)c(Nc2cc(-c3ccccc3OC)ncn2)cc1C(N)=O` [Example 143, 4-Fluoro-2-methoxy-5-[6-(2-methoxy-phenyl)-pyrimidin-4-ylamino]-benzamide], in series [1], the IC50 came to 16 nM; the “antiviral and antiproliferative activity and cytotoxicity profile (in words)” value is “good antiviral and antiproliferative activity and a good cytotoxicity profile”. In series [2], the IC50 was above 80 nM.
On to `CNC(=O)c1cc(Nc2cc(-c3ccccc3OC)ncn2)ccc1OC` [Example 25, 2-Methoxy-5-(6-(2-methoxyphenyl)pyrimidin-4-ylamino)-N-methylbenzamide], for which the IC50 in series [1] and in series [2] was above 500 nM throughout.
`COC(=O)c1cc(Nc2cc(-c3ccccc3OC)ncn2)ccc1OC` [Example 30, Methyl 2-methoxy-5-(6-(2-methoxyphenyl)pyrimidin-4-ylamino)benzoate]: the IC50 in series [1] is above 1500 nM; in series [2] (primary T cells, mitotic index) it was above 500 nM.
On the same counts, the results for `CCOC(=O)c1cc(Nc2cc(-c3ccccc3OC)ncn2)ccc1N1CCOCC1` [Example 18, Ethyl 5-(6-(2-methoxyphenyl)pyrimidin-4-ylamino)-2-morpholinobenzoate] are above 1500 nM and above 500 nM.
Take `COc1ccc(Nc2cc(-c3cc(F)ccc3OC)ncn2)cc1C(N)=O` [Example 127, 5-[6-(5-Fluoro-2-methoxy-phenyl)-pyrimidin-4-ylamino]-2-methoxy-benzamide]: the IC50 in series [1] is 3 nM; in series [2], below 80 nM. For the same compound, the “antiviral and antiproliferative activity and cytotoxicity profile (in words)” value in series [1] is “good antiviral and antiproliferative activity and a good cytotoxicity profile”.
Turning to `CNS(=O)(=O)Nc1cc(Nc2cc(-c3ccccc3OC)ncn2)ccc1OC` [Example 10, (2-Methoxy-5-(6-(2-methoxyphenyl)pyrimidin-4-ylamino)phenyl)(methylsulfamoyl)amine], in series [1], the IC50 was 800 nM; the “antiviral and antiproliferative activity and cytotoxicity profile (in words)” value was “good antiviral and antiproliferative activity and a good cytotoxicity profile”. In addition, the IC50 in series [2] (primary T cells, mitotic index) amounted to 500 nM.

These data come from patent US10294218B2 (VIROSTATICS SRL, priority 2012, dated 2019).
